Experiment [1] deals with human umbilical vein endothelial cells (HUVEC) and normal human dermal fibroblasts. Put plainly: Measurement of lumen formation (angiogenesis kit, CD31 immunostaining, lumen area). The format is cell-based. As to conditions: for lumen formation promoting-activity for vascular endothelial cells: examined in the same manner as in Example 1. As to the method:
The measurement of lumen formation was carried out in the following manner using commercially available angiogenesis kits (Kurabo), each including human umbilical vein endothelial cells (HUVEC) and normal human dermal fibroblasts. First, sample solutions were prepared by dissolving 2-Cl—C.OXT-A in physiological saline so as to achieve predetermined concentrations (1, 10, 100, 500 μmol/l, 1, 5, 10, 50 mmol/l). Then, the sample solutions containing 2-Cl—C.OXT-A at the predetermined concentrations respectively were added to media provided in the kits so that their concentrations became 10 v/v %. Thus, lumen formation media were prepared. The final concentrations of 2-Cl—C.OXT-A in the lumen formation media were 0.1, 1, 10, 50, 100, 500 μmol/l, 1 and 5 mmol/1.
Using each of the lumen formation media, the human umbilical vein endothelial cells (HUVEC) and the normal human dermal fibroblasts were cultured for 10 days. After the culture, the human umbilical vein endothelial cells (HUVEC) were immunostained using a lumen staining kit (for CD31 staining, Kurabo). Then, using NIH Image (image processing and analysis software), the area of a portion stained by the immunostaining (lumen area) was measured. As a control, a medium provided in the kit was used instead of the lumen formation medium to carry out the culture, and the cells were immunostained and the lumen area was measured in the same manner as in the above. Then, using the following equation (II), the relative value of lumen area in the culture using each of the lumen formation media containing 2-Cl—C.OXT-A at the predetermined concentrations was calculated.
In the present example, the relative value of lumen area was calculated in the same manner as in the lumen formation measurement in Example 1, except that the measurement was carried out with respect to four groups respectively using media Nos. 5 to 8 prepared by adding 2-Cl—C.OXT-A and PD98059 to media provided in the above-described angiogenesis kits (Kurabo) so that their concentrations became as shown in Table 2 below. In the group using the medium No. 7, the culture was conducted using the medium No. 7 from the first to third days of the culture and the medium No. 5 from the fourth to tenth days of the culture, and in the group using the medium No. 8, the culture was conducted using the medium No. 8 from the first to third days of the culture and the medium No. 6 from the fourth to tenth days of the culture.
In the present example, the relative value of lumen area was calculated in the same manner as in the lumen formation measurement in Example 1, except that the measurement was carried out with respect to six groups respectively using media Nos. 15 to 20 prepared by adding 2-Cl—C.OXT-A, VEGF (positive control), and SU5416 to media provided in the above-described angiogenesis kit (Kurabo) so that their concentrations became as shown in Table 4 below. In the group using the medium No. 16, the culture was conducted using the medium No. 16 from the first to third days of the culture and the medium No. 15 from the fourth to tenth days of the culture; in the group using the medium No. 18, the culture was conducted using the medium No. 18 from the first to third days of the culture and the medium No. 17 from the fourth to tenth days of the culture; and in the group using the medium No. 20, the culture was conducted using the medium No. 20 from the first to third days of the culture and the medium No. 19 from the fourth to tenth days of the culture.

The test system of experiment [2] is Human umbilical vein endothelial cells (HUVEC). In words: Measurement of cell migration (CytoSelect 24-well Cell Migration Assay). The note with it: examined in the same manner as in Example 1. The class given is cell-based. As to the method: Measurement of cell migration was carried out in the following manner using CytoSelect 24-well Cell Migration Assay (CBA-100, Cell Biolabs) kits. First, sample solutions were prepared by dissolving 2-Cl—C.OXT-A in physiological saline so as to achieve predetermined concentrations (0.1, 0.5, 1 mmol/l). Then, the sample solutions containing 2-Cl—C.OXT-A at the predetermined concentrations respectively were added to HuMedia-EB2 media (Kurabo) to which 2 v/v % inactivated fetal bovine serum (FBS) had been added so that their concentrations became 10 v/v %. Thus, cell migration media were prepared. The final concentrations of 2-Cl—C.OXT-A in the cell migration media were 10, 50, and 100 μmol/l.
Human umbilical vein endothelial cells (HUVEC) were suspended in a HuMedia-EB2 medium (Kurabo) to which 2 v/v % inactivated fetal bovine serum (FBS) had been added at a density of 0.5×10^6 cells/ml. Thus, a cell suspension was prepared. 300 μl of the cell suspension was added to an upper compartment (i.e., in an insert) of a polycarbonate membrane plate provided in the kit, and 500 μl of the cell migration medium was added to a lower compartment (i.e., in a well) of the plate. Then, the cells were cultured at 37° C. for 24 hours. After the completion of the culture, the membrane on the inner bottom face of the insert was wiped out with a cotton swab to remove the cells on the membrane. Then, cells having migrated to the rear face of the membrane (the membrane on the outer bottom face of the insert) were stained using a staining solution provided in the kit, and then photographed from below the insert. After the photographing, the dye was extracted with an extracting solution provided in the kit, and the absorbance at 560 nm was measured using a microplate reader. As a control, a HuMedia-EB2 medium (Kurabo) to which 2 v/v % inactivated fetal bovine serum (FBS) had been added was used instead of the cell migration medium to carry out the culture, and the cells were stained and the absorbance was measured in the same manner as in the above. Then, using the above equation (I), the relative absorbance in the culture using each of the cell migration media containing 2-Cl—C.OXT-A at the predetermined concentrations was calculated.

For experiment [3] the test system is unchanged. In words: Measurement of cell proliferation (Cell Counting Kit-8). The format is cell-based. The note with it: examined in the same manner as in Example 1. As to the method:
Sample solutions were prepared by dissolving 2-Cl—C.OXT-A in physiological saline so as to achieve predetermined concentrations (0.5, 1, 5, 10, 50, 100 mmol/l). Then, the sample solutions containing 2-Cl—C.OXT-A at the predetermined concentrations respectively were added to HuMedia-EB2 media (Kurabo) to which 2 v/v % inactivated fetal bovine serum (FBS) had been added so that their concentrations became 10 v/v %. Thus, cell proliferation media were prepared. The final concentrations of 2-Cl—C.OXT-A in the cell proliferation media were 50, 100, 500 μmol/l, 1, 5, and 10 mmol/1.
Human umbilical vein endothelial cells (HUVEC) suspended in a HuMedia-EG2 medium (Kurabo) were inoculated into each of gelatin-coated wells of a 96-well plate at a density of 3×10^3 cells per well, and cultured for 24 hours. 24 hours after the start of the culture, the medium was removed, and 100 μl of the cell proliferation medium was added to each well. The cells were cultured for another 48 hours. After the completion of the culture, a color reaction was caused using a Cell Counting Kit-8 (Dojindo Laboratories). 2 hours after the start of the reaction, the absorbance at 450 nm was measured using a microplate reader. As a control, a HuMedia-EB2 medium (Kurabo) to which 2 v/v % inactivated fetal bovine serum (FBS) had been added was used instead of the cell proliferation medium to carry out the culture, and a color reaction was caused and the absorbance was measured in the same manner as in the above. Then, using the following equation (I), the relative absorbance in the culture using each of the cell proliferation media containing 2-Cl—C.OXT-A at the predetermined concentrations was calculated.
On the technique in general: Tetrazolium dyes change colour on reduction, which living cells bring about.

For the next experiment, the system named is ERK. Put plainly: ERK activation (phosphorylation) immunoblot in HUVEC. The format is cell-based, human. As to the method: First, to a HuMedia-EB2 medium (Kurabo) to which 2 v/v % inactivated fetal bovine serum (FBS) had been added, 2-Cl—C.OXT-A was added so that its concentration became 100 μmol/l. Thus, a medium was prepared. Using the medium, human umbilical vein endothelial cells (HUVEC) were cultured for predetermined periods (0, 10, 20, 30, 45, and 60 minutes).
After the culture, cells were collected. The collected cells were lysed by adding a cell lysis buffer (SDS-lysis buffer) thereto, and heat-denatured at 95° C. for 5 minutes. The solubilized protein in an amount corresponding to 5 v/v % of the heat-denatured cell lysate was subjected to electrophoresis using 10% SDS-polyacrylamide gel, whereby the solubilized protein was transferred onto a nitrocellulose membrane (Amersham Biosciences). To 20 ml of TBS-T having the following composition, skim milk (Wako) was added so that its concentration became 5%, thus preparing a blocking solution. The resultant nitrocellulose membrane was immersed in the blocking solution and shaken at room temperature for 1 hour.
Primary antibodies shown below were diluted 1000-fold by adding them to 5% bovine serum albumin (Sigma)-containing TBS-T, thus preparing a primary antibody solution. The nitrocellulose membrane after being subjected to the blocking was immersed in the primary antibody solution, and shaken at room temperature for 1 hour. The resultant nitrocellulose membrane was immersed in the TBS-T and washed by being shaken for 10 minutes. This washing operation was carried out three times in total.
Secondary antibodies shown below were diluted 20000-fold by adding them to TBS-T, thus preparing a secondary antibody solution. The nitrocellulose membrane having undergone the reaction with the primary antibodies was immersed in the secondary antibody solution, and shaken at room temperature for 1 hour. The resultant nitrocellulose membrane was immersed in the TBS-T and washed by being shaken for 10 minutes. This washing operation was carried out three times in total.
The enzymes were visualized with SuperSignal (registered trademark) West Pico Chemiluminescent Substrate (Pierce), and detected by being exposed to RX—U X-ray film (FUJIFILM Corporation). From the detected bands, the respective phosphoenzymes and total enzymes were quantified using an NIH image software. Furthermore, the relative value (−fold) of each phosphoenzyme was calculated by substituting the measured value of the phosphoenzyme into the following equation (III).
Relative value(−fold)of phosphoenzyme=(B/D)/(A/C) (III)
In the present example, the effect of 2-Cl—C.OXT-A of Example 1 and C.OXT-G of Comparative Example 2 on the activation (phosphorylation) of ERK was examined. In the present example, the amount of each enzyme was measured and the relative value (−fold) of each phosphoenzyme was calculated in the same manner as in Example 3, except that: a medium to which 2-Cl—C.OXT-A had been added so as to achieve predetermined concentrations (0, 10 and 100 μmol/l) and a medium to which 100 μmol/l C.OXT-G had been added were used; the culture period after the addition was set to 20 minutes: as the primary antibodies, only an anti-phospho ERK polyclonal antibody (Catalog No. 9101, Cell Signaling Technology) and an anti-total ERK monoclonal antibody (Catalog No. 610408, BD Transduction Laboratory) were used; as the secondary antibody for ERK, a sheep HRP-labeled anti-mouse IgG antibody (Pierce) was used; and as a secondary antibody of pERK, a sheep HRP-labeled anti-rabbit IgG antibody (Pierce) was used.
In the present example, the effect of PD98059 as an MEK inhibitor on the ERK activation (phosphorylation) by 2-Cl—C.OXT-A used in Example 1 was examined. […]
(In general: In western blotting, separated proteins are transferred to a membrane and probed.)

This note sets out measurements from US20110230659A1, “CYCLOBUTYL PURINE DERIVATIVE, ANGIOGENESIS PROMOTING AGENT, LUMEN FORMATION PROMOTING AGENT, NEUROCYTE GROWTH PROMOTING AGENT, AND DRUG” (NATIONAL UNIVERSITY CORPORATION KAGAWA UNIVERSITY, priority 2008, published 2011).

Each structure is given as a SMILES string.

For `COc1nc(N)nc2c1nc(OC)n2C1CC(CO)C1CO` (stereo not drawn) [chemical formula (21), 2-amino-6,8-dimethoxy-9-[trans-trans-2,3-bis(hydroxymethyl)cyclobutyl]purine], in experiment [1], the “lumen formation promoting-activity for vascular endothelial cells” value (from here on “lumen formation promoting-activity”) is listed as “exhibited”. Besides, in experiment [2], the “cell migration promoting-activity for vascular endothelial cells” value (“cell migration promoting-activity” for short) is “exhibited”. Further, the “cell proliferation promoting-activity for vascular endothelial cells” value (“cell proliferation promoting-activity” below) in experiment [3] is “exhibited”.
For the compound `CC(=O)OCC1CC(n2cnc3c(=O)[nH]c(N)nc32)C1COC(C)=O` (stereo not drawn) [chemical formula (17), 9-[trans-trans-2,3-bis(acetyloxymethyl)cyclobutyl]guanine], in experiment [1], the “lumen formation promoting-activity” value is on record as “exhibited”. The “cell migration promoting-activity” value in experiment [2] is listed as “exhibited”. In experiment [3], the “cell proliferation promoting-activity” value was “exhibited”.
As for `COc1cccc(-c2cc(=O)c3ccccc3o2)c1N` [PD98059, reference compound], in experiment [1] (Example 7, medium No. 8: 2-Cl—C.OXT-A 10 μmol/l + PD98059 10 nmol/l (first to third days)), the “relative value of lumen area compared with control” value is “about 1 fold”. For the same compound, in the experiment with ERK (Example 6, medium No. 3: only PD98059 100 nmol/l), the “increase in pERK” value is “not observed”. The “ERK activation by 2-Cl—C.OXT-A in the presence of PD98059” value in the experiment with ERK (Example 6, medium No. 4: 2-Cl—C.OXT-A 100 μmol/l + PD98059 100 nmol/l) is listed as “inhibited”.
Consider `Nc1nc2c(ncn2C2CC(CO)C2CO)c(=O)[nH]1` (stereo not drawn) [C.OXT-G, 2-amino-9-[trans-trans-2,3-bis(hydroxymethyl)cyclobutyl]-3H-purine-6-one, reference compound], for which the “amount of pERK” value in the experiment on ERK (Example 4, 100 μmol/l C.OXT-G, 20 minutes) is recorded as “not increased”.
Take `Nc1nc2c(nc(Br)n2C2CC(CO)C2CO)c(=O)[nH]1` (stereo not drawn) [chemical formula (19), 8-bromo-9-[trans-trans-2,3-bis(hydroxymethyl)cyclobutyl]guanine]: the “lumen formation promoting-activity” value in experiment [1] was “exhibited”. For the same compound, the “cell migration promoting-activity” value in experiment [2] was “exhibited”. For the same compound, the “cell proliferation promoting-activity” value in experiment [3] was “exhibited”.
`CC(=O)OCC1CC(n2c(Br)nc3c(=O)[nH]c(N)nc32)C1COC(C)=O` (stereo not drawn) [chemical formula (18), 8-bromo-9-[trans-trans-2,3-bis(acetyloxymethyl)cyclobutyl]guanine]: in experiment [1], the “lumen formation promoting-activity” value is “exhibited”. Moreover, in experiment [2], the “cell migration promoting-activity” value is recorded as “exhibited”. Moreover, the “cell proliferation promoting-activity” value in experiment [3] is reported as “exhibited”.
In the case of `CC(=O)OCC1CC(n2c(Cl)nc3c(Cl)nc(N)nc32)C1COC(C)=O` (stereo not drawn) [chemical formula (20), 2-amino-6,8-dichloro-9-[trans-trans-2,3-bis(acetyloxymethyl)cyclobutyl]purine], the “lumen formation promoting-activity” value in experiment [1] is on record as “exhibited”. The “cell migration promoting-activity” value in experiment [2] was “exhibited”. The “cell proliferation promoting-activity” value in experiment [3] is “exhibited”.
